What is called solubility is the concentration that dissolves in the medium under given conditions. Higher therefore signals much dissolved substance.

Each structure is given as a SMILES string. In brackets after ≈: the same amount, converted by molar mass.

The values that follow come from patent US20040242538A1, “Method to improve complexation efficacy and produce high-energy cylodextrincomplexes” (priority 2001, published 2004).

One series can be described thus: physchem. The note with it: pH 7.4, aqueous buffer, thermodynamic from solid.
Series [1] can be described thus: Stability of the drug in complexes during heating in the vacuum oven (HPLC). The format is physicochemical. The following applies: complexes heated at 90° C. for several days.
Procedure: All solutions were lyophilized, then the obtained complex was sieved through a 300 μm sieve and heated in a vacuum oven at 60-90° C. for several days, depending on the drug being investigated.
The amount of drug per gram sample was determined on a high performance liquid chromatographic (HPLC) component system, consisting of ConstaMetric 3200 solvent delivery system operated at 1.5 ml/min, a SpectroMonitor 3200 UV/VIS variable-wavelength detector, a Merck-Hitachi AS-2000A autosampler, Merck Hitachi D-2500 Chromato-Integrator and a Phenomex ODS 5 μm (150×4.6 mm) column.
Selected Basic drug A complexes were analysed after heating in the vacuum oven at 90° C. for several days.

Procedure for physchem: To investigate this special property of the complexes, 50 mg of complex containing the basic drug was dissolved in 25 ml of phosphate buffer 0.1 M, pH 7.4. 100 μl samples were taken from this solution and measured for 1-96 hours depending on the complex being investigated. […] Solid drug particles with and without cyclodextrin were also weighed and placed in the buffer to show the difference in solubility between samples of the drug alone, drug and cyclodextrin in a standard mixture, and drug in complex with cyclodextrin.
The solid complexes were heated in a vacuum oven for 4 days at 88° C. and 0.13×10^2 Pa. Each complex contained about 0.2 equivalents of acetic acid. A 50 mg sample of each complex was dissolved in 25 ml of the buffer. […] 12 mg of solid Basic drug A particles were also dissolved in 50 ml of the buffer with or without 38 mg of HPβCD to show the effect of complexing.

Consider `Cc1ccc(N2CCN(C)CC2)c2c1CC[C@@H](NC(=O)c1ccc(N3CCOCC3)cc1)C2` [Basic drug A, (R)-N-[5-methyl-8-(4-methylpiperazin-1-yl)-1,2,3,4-tetrahydro-2-naphthyl]-4-morpholinobenzamide], for which the concentration in solution in “physchem” (solubility) came to 34 µg/mL (≈ 75.8 µM). Besides, in series [1], the “stability during heating in the vacuum oven” value is “stable during heating in the vacuum oven”.
